For assay [1], the target named is T1, recombinant human muscarinic receptor m2 (Homo sapiens, UniProt P08172).
T1 construct: expressed in transfected cells; host or cells: Chinese hamster ovary (CHO) cells, membrane preparation
T1 sequence (P08172 1-466): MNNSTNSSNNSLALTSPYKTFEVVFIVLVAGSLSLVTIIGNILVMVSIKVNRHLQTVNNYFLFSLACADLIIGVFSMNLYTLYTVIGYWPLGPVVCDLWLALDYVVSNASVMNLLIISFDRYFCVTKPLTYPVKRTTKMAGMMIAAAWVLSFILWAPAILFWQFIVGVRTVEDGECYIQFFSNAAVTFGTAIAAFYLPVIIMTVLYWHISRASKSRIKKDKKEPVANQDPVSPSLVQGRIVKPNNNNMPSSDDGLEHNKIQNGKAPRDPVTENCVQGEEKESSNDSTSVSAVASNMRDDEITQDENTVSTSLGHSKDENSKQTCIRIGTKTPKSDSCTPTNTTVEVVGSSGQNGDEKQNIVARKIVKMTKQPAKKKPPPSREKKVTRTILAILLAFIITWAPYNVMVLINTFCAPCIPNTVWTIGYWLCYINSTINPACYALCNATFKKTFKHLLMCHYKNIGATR
In words: Radioligand binding studies, [3H]N-methyl scopolamine, m2. Conditions: CHO cell membranes, [3H]N-methyl scopolamine 0.4 nM; pIC50 converted to pKi by Cheng-Prusoff. As for the experimental part:
(§1) The compounds of this invention are muscarinic receptor antagonists. The muscarinic receptor affinity of test compounds can be determined by an in vitro receptor binding assay which utilizes a cell membrane preparation from the Chinese hamster ovary cells expressing the recombinant human muscarinic receptors (M1-M5), and is described in more detail in Example 12.
(§2) The inhibitory activity of compounds of this invention in vitro was determined using a modification of the method described in Hegde, S. S. et al. 1997 Br. J. Pharmacol., 120, 1409-1418.
(§3) Cell membranes from Chinese hamster ovary cells expressing the recombinant human muscarinic receptors (m1-m5) were employed. The assays were conducted with the radioligand [^3H]N-methyl scopolamine (0.4 nM, specific activity 84 Ci·mmol^−1) in a final volume of 0.25 mL Tris-Krebs buffer. Non-specific binding was defined with 1 μM atropine. Assays were performed using scintillation proximity assay technology. Competition-displacement curves were generated using 10 concentrations of test compounds and were analyzed by iterative curve fitting to a four parameter logistic equation. pIC50 values (-log of the IC50) were converted to pKi values using the Cheng-Prusoff equation.

Assay [2] addresses T2, recombinant human muscarinic receptor m3 (Homo sapiens, UniProt P20309).
T2 construct: expressed in transfected cells; host or cells: Chinese hamster ovary (CHO) cells, membrane preparation
In words: Radioligand binding studies, [3H]N-methyl scopolamine, m3. Conditions: CHO cell membranes, [3H]N-methyl scopolamine 0.4 nM; pIC50 converted to pKi by Cheng-Prusoff. The protocol:
as §1, §2, §3

As a reminder, the Ki is a measure of affinity in units of concentration, obtained from inhibition or displacement.

T2 sequence (P20309 whole entry): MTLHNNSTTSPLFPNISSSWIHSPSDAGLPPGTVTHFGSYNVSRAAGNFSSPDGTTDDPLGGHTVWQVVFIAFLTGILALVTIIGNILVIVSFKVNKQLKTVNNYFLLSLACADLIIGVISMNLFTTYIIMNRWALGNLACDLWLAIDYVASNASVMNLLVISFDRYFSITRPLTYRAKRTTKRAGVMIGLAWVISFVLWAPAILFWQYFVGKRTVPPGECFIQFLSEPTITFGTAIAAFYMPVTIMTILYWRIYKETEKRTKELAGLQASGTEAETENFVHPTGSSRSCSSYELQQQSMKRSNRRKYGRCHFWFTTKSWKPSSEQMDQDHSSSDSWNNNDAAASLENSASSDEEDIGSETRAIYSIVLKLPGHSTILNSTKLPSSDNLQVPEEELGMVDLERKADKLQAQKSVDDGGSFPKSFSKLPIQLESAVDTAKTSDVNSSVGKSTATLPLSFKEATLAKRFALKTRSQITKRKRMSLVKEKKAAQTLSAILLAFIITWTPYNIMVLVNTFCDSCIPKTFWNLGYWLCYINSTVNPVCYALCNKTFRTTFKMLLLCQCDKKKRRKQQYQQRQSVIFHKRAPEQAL

Turning to `CCCN(C1CCN(C(C)=O)CC1)C1CCc2ccc(OC)cc2C1` (centres unmarked) [Cpd 15, 1-{4-[(7-methoxy-1,2,3,4-tetrahydro-naphthalen-2-yl)-propyl-amino]-piperidin-1-yl}ethanone], the inhibition constant Ki was 4.27 nM in assay [1] and 6.76 nM in assay [2].

On to `CCCN(C1CCN(C(=O)N2CCOCC2)CC1)C1CCc2ccc(OC)cc2C1` (centres unmarked) [Cpd 1, {4-[(7-methoxy-1,2,3,4-tetrahydro-naphthalen-2-yl)-propyl-amino]-piperidin-1-yl}-morpholin-4-yl-methanone], for which the Ki in assay [1] is 2.69 nM; in assay [2], 1.48 nM.

`CCCN(C1CCN(C(=O)C2CCNCC2)CC1)C1CCc2cc(OC)c(OC)cc2C1` (centres unmarked) [Cpd 28, {4-[(6,7-dimethoxy-1,2,3,4-tetrahydro-naphthalen-2-yl)-propyl-amino]-piperidin-1-yl}-piperidin-4-yl-methanone]: the figures for the Ki in assay [1] and in assay [2] were 5.01 nM and 11.5 nM, respectively.

Consider `CCCN(C1CCN(C(=O)N2CCN(C)CC2)CC1)C1CCc2ccc(OC)cc2C1` (centres unmarked) [Cpd 23, {4-[(7-methoxy-1,2,3,4-tetrahydro-naphthalen-2-yl)-propyl-amino]-piperidin-1-yl}-(4-methyl-piperazin-1-yl)-methanone], for which the Ki in assay [1] was 0.575 nM; in assay [2] it was 2.75 nM.

With `CCCN(C1CCN(C(=O)C2CCNCC2)CC1)[C@@H]1CCc2ccc(OC)cc2C1` [Cpd 39, {4-[((R)-7-methoxy-1,2,3,4-tetrahydro-naphthalen-2-yl)-propyl-amino]-piperidin-1-yl}-piperidin-4-yl-methanone], the inhibitory constant (Ki) was 2.19 nM in assay [1] and 0.955 nM in assay [2].

As for `CCCN(C1CCN(C(=O)c2ccco2)CC1)C1CCc2ccc(OC)cc2C1` (centres unmarked) [Cpd 4, furan-2-yl-{4-[(7-methoxy-1,2,3,4-tetrahydro-naphthalen-2-yl)-propyl-amino]-piperidin-1-yl}-methanone], the Ki in assay [1] is 26.3 nM; in assay [2], 51.3 nM.

Consider `CCCN(C1CCN(C(=O)c2ccccc2C)CC1)C1CCc2ccc(OC)cc2C1` (centres unmarked) [Cpd 3, {4-[(7-methoxy-1,2,3,4-tetrahydro-naphthalen-2-yl)-propyl-amino]-piperidin-1-yl}o-tolyl-methanone], for which the Ki was 41.7 nM in assay [1] and 49 nM in assay [2].

With `CCCN(C1CCN(C(=O)N2CCNCC2)CC1)C1CCc2ccc(OC)cc2C1` (centres unmarked) [Cpd 16, {4-[(7-methoxy-1,2,3,4-tetrahydro-naphthalen-2-yl)-propyl-amino]-piperidin-1-yl}-piperazin-1-yl-methanone], the inhibition constant (Ki) was 0.977 nM in assay [1] and 1.58 nM in assay [2].

As for `CCCN(C1CCN(C(=O)N(CC)CC)CC1)C1CCc2ccc(OC)cc2C1` (centres unmarked) [Cpd 5, 4-[(7-methoxy-1,2,3,4-tetrahydro-naphthalen-2-yl)-propyl-amino]-piperidine-1-carboxylic acid diethylamide], the figures for the Ki in assay [1] and in assay [2] were 3.16 nM and 5.89 nM, respectively.

For `CCCN(C1CCN(C(=O)C2CCNCC2)CC1)C1CCc2ccc(Br)cc2C1` (centres unmarked) [Cpd 35, {4-[(7-bromo-1,2,3,4-tetrahydro-naphthalen-2-yl)-propyl-amino]-piperidin-1-yl}-piperidin-4-yl-methanone], the Ki in assay [1] was 1.82 nM; in assay [2], 0.891 nM.

(Values after patent US6806278B2, “Amino-tetralin derivatives as muscarinic receptor antagonists” (Syntex (U.S.A.) LLC, priority 2001, dated 2004).)
